The text below walks through data of patent US4469706A, “Selective beta-2 adrenergic antagonists for the treatment of glaucoma” (priority 1982, dated 1984).

Where a name gives a salt, the structure may show the parent alone. Read-outs that look alike come from different tables or passages of the source.

The target in series [1] is T1, beta-adrenergic sensitive adenylate cyclase present in mammalian choroid plexus (Felis catus, UniProt Q9TST5).
T1 construct: are prepared from the various tissues to be studied (e.g., ciliary process, choroid plexus, heart or lung); from tissue; host or cells: choroid plexus (homogenate or washed particulate)
In words: Choroid plexus adenylate cyclase activity. It is filed as biochemical.

Series [2] deals with heart adenylate cyclase. Briefly: Heart adenylate cyclase activation and inhibition. The series is classed as biochemical, mammalian. The settings on record: antagonists; Table I; ** data from the present inventor, method (a); read-out: Adenylate Cyclase Ki, Heart (G).
The target in series [3] is T2, rabbit ciliary process adenylate cyclase (Oryctolagus cuniculus, UniProt G1TAV7).
T2 construct: After isolation of the ciliary process, adenylate cyclase activity was measured; from tissue; host or cells: rabbit ciliary process
Briefly: Rabbit ciliary process beta-adrenergic sensitive adenylate cyclase activity. The series is classed as biochemical. The settings on record: for Ki: antagonists, inhibition of isoproterenol-stimulated activity, Table I, read-out: Adenylate Cyclase Ki, Ciliary Process Rabbit (B).

The target of series [4] is beta1 -adrenergic receptor present in mammalian heart. The conditions noted are these: Table I; Minneman et al; read-out: Kd for IHYP Binding, Heart (E); cited from earlier work.
Series [5] concerns rabbit ciliary process adenylate cyclase. Briefly: Rabbit ciliary process beta-adrenergic sensitive adenylate cyclase activity. The series is classed as biochemical. The conditions noted are these: Table I columns B (rabbit ciliary process) and G.
Series [6] has as its target T3, heart adenylate cyclase (Rattus norvegicus, UniProt P18090).
T3 construct: are prepared from the various tissues to be studied (e.g., ciliary process, choroid plexus, heart or lung); from tissue; host or cells: heart (homogenate or washed particulate)
The settings on record: agonists; Table I; Minneman et al; NE = no effect as agonist; cited from earlier work.

For series [7], the target named is T4, human ciliary process beta-adrenergic receptors (Homo sapiens, UniProt P07550).
T4 construct: ciliary process from human donor eyes was assayed biochemically; from tissue; host or cells: ciliary process from human donor eyes
In words: biochemical.

The subject of series [8] is intraocular pressure in rabbit eyes.
The test system of series [9] is cardioacceleratory effect of isoproterenol. The conditions noted are these: subcutaneous antagonist 30 minutes before 3 micrograms/kg subcutaneous isoproterenol; rabbits.
The test system of series [10] is intraocular pressure above normal. Briefly: Alpha chymotrypsin-induced glaucoma in rabbits. The series is classed as in vivo, rabbit. The settings on record: compared with timolol. The text has this:
This effect is also observed under conditions of elevated pressure.

Series [11] relates to ciliary body adenylate cyclase. In words: Ciliary body adenylate cyclase stimulation. It is filed as biochemical. The source says:
(§1) The discovery that the ciliary process of the mammalian eye contains β2 -adrenergic receptors is based on the technique of measuring adenylate cyclase, an enzyme which synthesizes cyclic AMP from ATP. It has been established that receptor binding of beta adrenergic agonists is associated with a concomitant activation of adenylate cyclase. (Robison, G. A., et al, Cyclic AMP, Academic Press, New York, 1971, and Wolfe, B. B., et al, Annual Reviews of Pharmacology and Toxicology, 17:575-604 (1977)). […] Beta adrenergic sensitive adenylate cyclase activity was thus identified and characterized in the ocular tissues of several mammalian species such as rabbits, cats, dogs, monkeys and humans. After isolation of the ciliary process, adenylate cyclase activity was measured, and its activation by agonists or inhibition by antagonists was measured. […].
(§2) For ciliary body, maximal stimulation was 15% of the stimulation seen in the ciliary process, and for iris, maximal stimulation was 22% for that seen in the ciliary process. […];

In series [12] the test system is iris adenylate cyclase. Briefly: Iris adenylate cyclase stimulation. The series is classed as biochemical.
Text: as §1, §2

The mark [13] stands for this setting: antagonists, Table I, read-out: Adenylate Cyclase Ki, Choroid Plexus (C).
Setting [14] is: 0.5% topical to ipsilateral eye.
The mark [15] stands for this setting: 0.5% topical, two 50 microliter doses, 2 and 3 hours after application.

The term Ki denotes a measure of affinity in units of concentration, obtained from inhibition or displacement. As a reminder, the Kd is a measure of binding affinity in units of concentration.

T4 sequence (P07550 whole entry): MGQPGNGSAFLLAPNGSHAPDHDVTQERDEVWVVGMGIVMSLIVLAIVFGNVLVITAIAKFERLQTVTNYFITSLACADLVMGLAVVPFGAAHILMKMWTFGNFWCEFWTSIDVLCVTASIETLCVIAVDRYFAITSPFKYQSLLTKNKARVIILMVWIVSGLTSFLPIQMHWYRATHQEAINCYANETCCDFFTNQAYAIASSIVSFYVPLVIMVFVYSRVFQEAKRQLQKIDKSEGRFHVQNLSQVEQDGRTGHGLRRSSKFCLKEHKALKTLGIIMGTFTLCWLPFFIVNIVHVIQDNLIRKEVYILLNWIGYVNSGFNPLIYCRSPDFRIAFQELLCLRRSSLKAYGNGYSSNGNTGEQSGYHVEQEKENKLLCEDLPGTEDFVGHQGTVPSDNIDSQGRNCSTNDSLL
T1 sequence (Q9TST5 whole entry): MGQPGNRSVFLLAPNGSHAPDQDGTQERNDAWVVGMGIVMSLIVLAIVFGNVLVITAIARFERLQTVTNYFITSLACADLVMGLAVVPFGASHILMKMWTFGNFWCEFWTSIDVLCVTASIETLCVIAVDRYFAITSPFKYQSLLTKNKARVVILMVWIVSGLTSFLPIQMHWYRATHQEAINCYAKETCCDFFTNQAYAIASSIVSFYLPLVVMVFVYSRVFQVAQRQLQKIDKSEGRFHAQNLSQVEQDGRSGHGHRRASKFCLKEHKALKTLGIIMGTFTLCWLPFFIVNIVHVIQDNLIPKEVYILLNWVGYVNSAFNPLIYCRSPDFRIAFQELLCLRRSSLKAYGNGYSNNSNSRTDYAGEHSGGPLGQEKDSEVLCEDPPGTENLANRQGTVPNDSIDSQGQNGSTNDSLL
T2 sequence (G1TAV7 1-437): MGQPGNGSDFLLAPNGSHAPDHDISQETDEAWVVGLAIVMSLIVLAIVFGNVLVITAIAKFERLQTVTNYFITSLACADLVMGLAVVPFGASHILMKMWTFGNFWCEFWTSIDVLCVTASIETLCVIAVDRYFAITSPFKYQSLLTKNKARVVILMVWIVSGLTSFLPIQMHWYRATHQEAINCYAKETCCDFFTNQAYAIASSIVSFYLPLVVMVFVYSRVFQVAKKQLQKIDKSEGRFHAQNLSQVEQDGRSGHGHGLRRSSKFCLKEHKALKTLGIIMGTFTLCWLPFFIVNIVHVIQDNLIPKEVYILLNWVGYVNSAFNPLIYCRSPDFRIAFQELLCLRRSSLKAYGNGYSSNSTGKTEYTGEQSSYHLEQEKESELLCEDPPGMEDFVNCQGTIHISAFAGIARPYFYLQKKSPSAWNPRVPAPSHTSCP
T3 sequence (P18090 whole entry): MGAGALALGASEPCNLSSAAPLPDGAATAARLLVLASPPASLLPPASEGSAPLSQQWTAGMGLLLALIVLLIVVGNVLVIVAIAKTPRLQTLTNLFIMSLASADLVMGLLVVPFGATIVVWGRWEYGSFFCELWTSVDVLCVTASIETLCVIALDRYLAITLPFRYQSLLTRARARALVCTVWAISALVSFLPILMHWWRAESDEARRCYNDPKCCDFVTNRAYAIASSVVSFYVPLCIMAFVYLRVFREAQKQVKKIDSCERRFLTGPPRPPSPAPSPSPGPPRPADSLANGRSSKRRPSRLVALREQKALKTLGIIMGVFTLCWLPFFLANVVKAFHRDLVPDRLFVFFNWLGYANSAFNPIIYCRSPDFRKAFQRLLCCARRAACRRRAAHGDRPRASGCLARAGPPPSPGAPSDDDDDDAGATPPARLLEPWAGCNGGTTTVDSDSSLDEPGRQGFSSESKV

On to `CC(C)NCC(O)COc1ccc(CC(N)=O)cc1` (stereo not drawn) [Atenolol, atenolol], for which the Ki in [1] (setting [13]) was 5800 nM; in [2] it was 2700 nM; in series [3], 21000 nM.

Consider `COc1ccc(OC)c(C(O)C(C)NC(C)(C)C)c1` (stereo not drawn) [Butoxamine], for which the inhibitory constant (Ki) in series [1] (setting [13]) is 1500 nM; in series [2], 15000 nM; in series [3], 1530 nM. In [4], the Kd was 7030 nM. Besides, the “β2/β1 potency ratio (Ki heart/Ki ciliary process)” value in [5] is recorded as 9.8.

`CNC[C@H](O)c1ccc(O)c(O)c1` [Epinephrine]: the values for the EC50 in series [1] and in series [3] were 1550 nM and 2400 nM, respectively. Moreover, in series [6], the “Adenylate Cyclase Ka, Heart (G)” value was 1.5 µM.

In the case of `Cc1ccc(C(O)C(C)NC(C)C)cc1` (stereo not drawn) [H35/25, 1(4'-methylphenyl)-2-isopropyl amino propanol], the Ki in series [7] (antagonists, inhibition of isoproterenol-stimulated activity, Table I column A, read-out: Adenylate Cyclase Ki, Ciliary Process Human (A)) was 740 nM; in series [7] (human ciliary process, Table 3, read-out: Ki for Isoproterenol-Stimulated Adenylate Cyclase), 740 nM; in series [7] (inhibition of isoproterenol stimulation of human ciliary process adenylate cyclase, read-out: calculated inhibitory constant (Ki)), 740 nM; in series [1], 140 nM; in series [3], 700 nM. In addition, the “beta2/beta1 Potency Ratio” value in series [7] (human ciliary process, Table 3) stood at 8.8.

`Cc1ccc(OCC(O)C(C)NC(C)C)c2c1CCC2` (stereo not drawn) [ICI 118,551]: the Ocular irritative effects result in [8] (rabbit, in vivo) is on record as “little ocular irritative effects”. For the same molecule, the “Decrease in intraocular pressure compared with timolol” value in series [8] (topical 50 μl of a 1% solution, 6 hours, N=12 double blind crossover) was “both a greater decrease as well as a more prolonged decrease in intraocular pressure than did timolol”. In addition, the Ki in [2] is 1760 nM; in series [3], 3 nM. Further, the “IC50 for blocking isoproterenol-induced increase in heart rate” value in series [9] is recorded as 140 micrograms/kg.

In the case of `CC(C)(C)NCC(O)CON=C1c2ccccc2-c2ccccc21` (stereo not drawn) [IPS 339, (t-butyl-amino 3-ol-2-propyl) oximino-9 fluorene, hydrochloride], the “Intraocular pressure above normal” value in [10] is reported as “decreased significantly”. Further, in series [8] (setting [14]), the “Change of IOP in the contralateral eye” value was “significant decrease in IOP in the contralateral eye” and the “Magnitude of contralateral IOP effect compared with timolol” value was “somewhat less for IPS 339 than for timolol”. The “Change of IOP in ipsilateral eyes compared to predrug readings” value in series [8] (setting [15]) is reported as “significant decrease in IOP in ipsilateral eyes”. In addition, the “Extent of IOP decrease compared with timolol” value in series [8] (0.5% topical, at 3 hours) is “significantly more than that caused by timolol”. For the same molecule, in [8] (rabbit, in vivo), the “Pupillary diameter and overt ocular toxicity” value is reported as “no significant changes in pupillary diameter nor overt ocular toxicity”. Also, the Ki in [1] was found to be 1.9 nM. The Ki in series [2] worked out at 1120 nM. The equilibrium dissociation constant (Kd) in series [4] was 10 nM.

Consider `CC(C)NCC(O)c1ccc(O)c(O)c1` (stereo not drawn) [Isoproterenol], for which the EC50 in series [1] worked out at 140 nM. Also, the “Maximal stimulation, of the stimulation seen in the ciliary process” value in [11] came out at 15%. The “Maximal stimulation, of that seen in the ciliary process” value in [12] is on record as 22%.

In the case of `NC[C@H](O)c1ccc(O)c(O)c1` [Norepinephrine], the EC50 in series [1] (agonists, Table I, read-out: Adenylate Cyclase Ka, Choroid Plexus (C)) was 25000 nM; in [3], 29000 nM. Also, the dissociation constant (Kd) in series [4] was 820 nM.

For `CC(=O)Nc1ccc(OCC(O)CNC(C)C)cc1` (stereo not drawn) [Practolol, practolol], the inhibition constant Ki in [1] (setting [13]) worked out at 8900 nM; in series [2], 5500 nM; in [3], 39000 nM. Also, the Kd in [4] was 1100 nM.

With `CC(C)(C)NC[C@H](O)COc1nsnc1N1CCOCC1` [Timolol, timolol], the “Change of IOP in the contralateral eye” value in [8] (setting [14]) is listed as “significant decrease in IOP in the contralateral eye”. Further, the “Change of IOP in ipsilateral eyes compared to predrug readings” value in [8] (setting [15]) is reported as “significant decrease in IOP in ipsilateral eyes”; in series [8] (0.5% topical, 1 hour after application), “also caused a significant decrease at 1 hour”. Besides, the “Pupillary diameter and overt ocular toxicity” value in series [8] (rabbit, in vivo) is reported as “no significant changes in pupillary diameter nor overt ocular toxicity”. In addition, the Ki was 20 nM in series [2] and 6.4 nM in series [3]. Besides, the “IC50 for blocking isoproterenol-induced increase in heart rate” value in series [9] stood at 2.2 micrograms/kg.
